Results reported in article PMC8048960 (Chemmedchem, 2020).
Peptide text beside a SMILES is read from it. * marks the point of attachment. Cbz = O=C(OCc1ccccc1)*

Legend:
[1] = system: LRRK2; settings: read-out: IC50 in the cellular assay; cited from earlier work
[2] = cited from earlier work
[3] = biological target: purified full‐length Strep flag LRRK2 (Homo sapiens, UniProt Q5S007); assay: In vitro radioactive kinase assay; format: biochemical
[4] = system: kinome; settings: kinases hit out of panel of 187; cited from earlier work
[5] = biological target: LRRK2; settings: read-out: Ki in the biochemical assay; cited from earlier work
[6] = biological target: GFP‐tagged LRRK2 in transfected HEK293 cells (Homo sapiens, UniProt Q5S007); assay: Ubiquitin assay; format: cell-based; settings: 24 h; for LRRK2 ubiquitination (ubiquitin signal): 10 µM, with or without 5 µM MG132, compared to DMSO
GFP‐tagged LRRK2 in transfected HEK293 cells, sequence (Q5S007 whole entry): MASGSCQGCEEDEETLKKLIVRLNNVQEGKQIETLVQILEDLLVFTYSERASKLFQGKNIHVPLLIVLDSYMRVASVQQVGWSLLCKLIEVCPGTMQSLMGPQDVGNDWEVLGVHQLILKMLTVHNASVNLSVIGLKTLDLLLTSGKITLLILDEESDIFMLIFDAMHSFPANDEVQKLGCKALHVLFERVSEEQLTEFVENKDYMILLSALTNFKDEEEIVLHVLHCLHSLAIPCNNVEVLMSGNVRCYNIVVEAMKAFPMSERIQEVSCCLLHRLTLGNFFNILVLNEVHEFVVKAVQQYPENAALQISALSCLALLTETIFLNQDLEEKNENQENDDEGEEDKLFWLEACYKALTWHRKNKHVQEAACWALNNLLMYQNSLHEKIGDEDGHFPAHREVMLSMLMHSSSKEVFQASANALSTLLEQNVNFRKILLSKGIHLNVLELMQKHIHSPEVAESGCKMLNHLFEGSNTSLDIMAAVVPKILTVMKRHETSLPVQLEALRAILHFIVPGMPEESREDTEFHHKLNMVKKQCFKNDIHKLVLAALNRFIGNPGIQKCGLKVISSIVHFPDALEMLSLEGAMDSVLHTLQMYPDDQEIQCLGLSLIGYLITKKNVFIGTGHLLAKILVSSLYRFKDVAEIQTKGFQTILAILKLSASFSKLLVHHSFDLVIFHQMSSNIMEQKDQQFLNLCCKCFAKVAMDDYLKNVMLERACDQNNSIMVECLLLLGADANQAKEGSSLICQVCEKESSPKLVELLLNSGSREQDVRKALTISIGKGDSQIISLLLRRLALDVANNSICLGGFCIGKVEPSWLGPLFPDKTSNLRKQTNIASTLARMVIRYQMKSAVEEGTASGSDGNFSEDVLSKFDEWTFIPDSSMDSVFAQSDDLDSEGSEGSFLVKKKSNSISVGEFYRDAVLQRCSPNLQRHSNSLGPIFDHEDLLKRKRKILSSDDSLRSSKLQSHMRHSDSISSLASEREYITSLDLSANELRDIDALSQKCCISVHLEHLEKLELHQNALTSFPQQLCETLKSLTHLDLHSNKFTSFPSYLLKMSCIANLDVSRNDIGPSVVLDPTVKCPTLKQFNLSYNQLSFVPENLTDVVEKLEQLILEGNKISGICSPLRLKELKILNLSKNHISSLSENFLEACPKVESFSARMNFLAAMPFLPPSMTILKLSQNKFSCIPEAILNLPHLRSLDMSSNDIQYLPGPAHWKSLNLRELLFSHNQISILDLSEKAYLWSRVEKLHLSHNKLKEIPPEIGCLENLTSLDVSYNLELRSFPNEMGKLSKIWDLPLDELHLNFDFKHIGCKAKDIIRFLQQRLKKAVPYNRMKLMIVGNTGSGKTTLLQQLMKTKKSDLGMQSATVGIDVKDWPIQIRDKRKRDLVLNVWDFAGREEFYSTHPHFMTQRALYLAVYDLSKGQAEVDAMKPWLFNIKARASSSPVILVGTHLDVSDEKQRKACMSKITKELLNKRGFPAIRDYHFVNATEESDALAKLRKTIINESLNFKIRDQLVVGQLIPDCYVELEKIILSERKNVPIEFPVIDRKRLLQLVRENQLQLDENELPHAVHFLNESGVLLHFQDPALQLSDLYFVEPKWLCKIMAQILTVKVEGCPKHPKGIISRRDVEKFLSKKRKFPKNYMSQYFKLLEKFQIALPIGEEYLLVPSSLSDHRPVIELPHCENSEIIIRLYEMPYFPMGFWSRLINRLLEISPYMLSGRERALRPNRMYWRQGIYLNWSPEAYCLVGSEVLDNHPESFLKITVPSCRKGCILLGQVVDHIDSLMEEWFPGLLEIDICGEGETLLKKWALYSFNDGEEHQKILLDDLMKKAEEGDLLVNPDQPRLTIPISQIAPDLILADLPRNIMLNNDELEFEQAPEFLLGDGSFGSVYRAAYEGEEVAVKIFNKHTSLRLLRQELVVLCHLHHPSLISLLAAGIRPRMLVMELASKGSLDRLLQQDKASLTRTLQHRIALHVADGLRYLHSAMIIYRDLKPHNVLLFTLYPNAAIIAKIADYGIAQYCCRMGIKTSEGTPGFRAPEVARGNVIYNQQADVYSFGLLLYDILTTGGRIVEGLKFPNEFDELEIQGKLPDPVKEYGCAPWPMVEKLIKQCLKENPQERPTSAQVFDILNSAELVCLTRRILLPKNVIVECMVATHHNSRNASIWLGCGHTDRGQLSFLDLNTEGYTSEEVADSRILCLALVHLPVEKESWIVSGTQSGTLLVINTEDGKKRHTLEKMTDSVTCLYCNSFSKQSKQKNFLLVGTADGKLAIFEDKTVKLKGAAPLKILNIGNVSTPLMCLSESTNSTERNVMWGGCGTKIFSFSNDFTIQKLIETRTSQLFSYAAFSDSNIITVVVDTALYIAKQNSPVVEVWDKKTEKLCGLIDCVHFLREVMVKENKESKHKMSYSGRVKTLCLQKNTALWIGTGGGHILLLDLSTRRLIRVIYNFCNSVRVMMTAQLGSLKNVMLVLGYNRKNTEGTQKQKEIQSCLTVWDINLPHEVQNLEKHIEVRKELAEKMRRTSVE

purified full‐length Strep flag LRRK2, sequence (Q5S007 whole entry): as above

| IC50 [3] [nM] | ubiquitin signal ([6]; 5 µM MG132 (proteasome inhibitor)) | SMILES | IC50 [1] [nM] | brain penetration [2] | kinome selectivity [4] | Ki [5] [nM] | LRRK2 ubiquitination (ubiquitin signal) [6] |
| --- | --- | --- | --- | --- | --- | --- | --- |
| 17.3 ± 6.76 |  | CCNc1nc(Nc2cc(F)c(C(=O)N3CCOCC3)cc2OC)ncc1C(F)(F)F [GNE‐7915] | 9 | brain penetrant | 1 out of 187 | 2 | neither the original kinase inhibitor (11) nor PROTAC (33) increase LRRK2 ubiquitination |
|  | can enhance the ubiquitin signal | CC(C)C[C@@H](C=O)NC(=O)[C@H](CC(C)C)NC(=O)[C@H](CC(C)C)NC(=O)OCc1ccccc1 [MG132] (Cbz-Leu-Leu-Leu-aldehyde) |  |  |  |  |  |
| 14.7 ± 6.14 |  | CCNc1nc(Nc2cc(F)c(C(=O)NCCCCNc3cccc4c3C(=O)N(C3CCC(=O)NC3=O)C4=O)cc2OC)ncc1C(F)(F)F (stereo not drawn) [PROTAC 33] |  |  |  |  | unable to increase the ubiquitin signal |
